Data on three molecules can be found in publication PMC11173897, “Computational Docking as a Tool in Guiding the Drug Design of Rutaecarpine Derivatives as Potential SARS-CoV-2 Inhibitors” (Molecules, 2024).

Experiment [1] deals with omicron SARS-CoV-2 pseudovirus. Put plainly: microbe, parasite or virus in culture. The settings on record: Severe acute respiratory syndrome-related coronavirus, HEK-293T; n = 5; read-out: IC50, entry of the omicron pseudovirus. The experiment is classed as cell-based.
Experiment [2] concerns wild-type SARS-CoV-2 pseudovirus. Put plainly: microbe, parasite or virus in culture. The experiment is classed as cell-based. The settings on record: for IC50: Severe acute respiratory syndrome-related coronavirus, HEK-293T, n = 5, read-out: IC50, blocking wild-type viral entry.

On to `O=c1c2ccccc2nc2n1CCc1c-2[nH]c2ccccc12` [RU, rutaecarpine], for which the IC50 (in general, the point on the concentration scale where inhibition reaches its midpoint) in experiment [1] amounted to 1.01 µM; in experiment [2] it was 1.34 µM.
Take `O=c1c2ccc(Nc3ccccc3)cc2nc2n1CCc1c-2[nH]c2ccccc12` [RU-75]: the IC50 in experiment [1] turned out to be 0.32 µM; in experiment [2] it was 0.46 µM. Moreover, in experiment [2], the “maximal inhibition compared with RU” value is given as “almost double that of RU”.
Turning to `O=C1c2ccc(Nc3ccccc3)cc2NC2=NCCc3c2n1c1ccccc31` [RU-184], the IC50 in experiment [1] stood at 0.26 µM. In experiment [2], the “maximal inhibition compared with RU” value is reported as “almost double that of RU” and the IC50 is 0.21 µM.
